Test results reported in patent US6423691B1, “Pharmaceutical composition for prophylaxis and therapy of diseases associated with ocular fundus tissue cytography” (Senju Pharmaceutical Co., Ltd., priority 1998, dated 2002).
Peptide text beside a SMILES is read from it. * marks the point of attachment. Cbz = O=C(OCc1ccccc1)*

How the values were obtained:
[1] = system: calpain; test: Effect on rat enucleated retina cytopathy under hypoxia (spectrin cleavage, SDS electrophoresis); assay type: cell-based; conditions: rat retina incubated under hypoxia in glucose-free RPMI 1640, 3 and 6 hours, 100 μM
Procedure: FIG. 3(a) and FIG. 3(b) are SDS electrophoretic images showing the cleavage product of endocellular spectrin obtained upon homogenation of retina tissues detected after incubation of rat retina tissues under hypoxia, wherein FIG. 3(a) and FIG. 3(b) show SDS electrophoretic images after incubation for 3 hours and 6 hours, respectively.
Effect on Rat Enucleated Retina Cytopathy Under Hypoxia Method:
The ocular fundus tissue (retina) of male SD rats (b. wt. 150 g) was removed and incubated under hypoxia in RPMI 1640 medium (manufactured by (Gibco) without glucose. The ocular fundus tissue was homogenized 3 and 6 hours later, and the cleavage product of endocellular spectrin was isolated by SDS electrophoresis and detected using homophil prepared by the method of Saido et. al. [The Journal of Biological Chemistry, 268, 25239-25243 (1993)]. As the test compounds, Compound 1 and MDL were dissolved in ethanol to a concentration of 20 mM and added to the culture medium to a concentration of 100 μM (Compound 1 administration group and MDL administration group). As a control, the ocular fundus tissue of male SD rats (b. wt. 150 g) was incubated in the same manner in the presence of oxygen in RPMI 1640 medium containing glucose.

[2] = system: retinal neurons (ganglion cells) and inner nuclear layer cells; test: Effect on rat ocular fundus tissue cytopathy (central retinal artery occlusion/reperfusion); assay type: in vivo; conditions: male SD rats, 75 min central retinal artery occlusion, 100 mg/kg i.p. 15 min before occlusion, immediately after reperfusion, then once daily; specimens 5 days after reperfusion
Excerpt: FIG. 1 is a diagrammatic representation of the effect on injury of rat retinal ganglion cells. The ordinate represents the number of ganglion cells. In the diagram, a) denotes a significant difference (p<0.01) from the normal group by Student's t-test; b) denotes a significant difference (p<0.01) from the control group by Student's t-test.
FIG. 2 is a diagrammatic representation of the effect on injury of the rat retinal inner nuclear layer cells. The ordinate represents the number of inner nuclear layer cells. In the diagram, a) denotes a significant difference (p<0.01) from the normal group by Student's t-test; b) denotes a significant difference (p<0.01) from the control group by Student's t-test.
Effect on Rat Ocular Fundus Tissue Cytopathy Method:
Using male SD rats (b. wt. 150 g), the central retinal artery was occluded with an aneurysm clip under anesthesia with 5 w/v % ketamine HCl/2 w/v % xylazine HCl (3:1, 0.5 ml, i.p.) to arrest the blood flow for 75 minutes. In the normal group, the central retinal artery was exposed but ischemia was not introduced. Tissue specimens were prepared 5 days after reperfusion. For use as a tissue specimen, the enucleated eyeball was fixed in 4% formaldehyde and embedded in paraffin in a routine manner. Then, thin sections (3 μm thick) were prepared by transverse slicing at right angles with the retinal surface including the optic disc and stained with hematoxylin-eosin. Under the light microscope, the retinal neurons (ganglion cells) and inner nuclear layer cells were counted per 0.25 mm span of the retinal section at a predetermined distance (1-2 mm) from the optic disc. As the test drug, a parenteral suspention prepared as in Example 3 was administered intraperitoneally in a dose of 100 mg, as Compound 1, per kg body weight 15 minutes before arterial occlusion, immediately after reperfusion, and thereafter once daily (Compound 1 administration group). The control and normal groups were similarly given the vehicle used in Example 3. In the positive control group, Cbz-Val-Phe-H [S.C. Hong et al., Stroke, 25 (3), 663-669, 1994], 100 mg/kg, was similarly administered (MDL administration group).

Row | SMILES | 145 kDa band (cleavage product of spectrin) [1] | 150 kDa band due to the digestion of spectrin [1] | inhibition of the decrease in ganglion cell count caused by arterial occlusion [2] | inhibition of the decrease in inner nuclear layer cell count caused by arterial occlusion [2]
1 | CC(C)[C@H](NC(=O)OCc1ccccc1)C(=O)N[C@H](C=O)Cc1ccccc1 [MDL, Cbz-Val-Phe-H] (Cbz-Val-Phe-aldehyde) | not detected | somewhat detected | slight | slight
2 | CC(C)C[C@@H](C=O)NC(=O)[C@@H](NS(=O)(=O)c1ccc(F)cc1)C(C)C [Compound 1, N-(4-fluorophenylsulfonyl)-L-valyl-L-leucinal] | not detected | somewhat detected | significantly inhibited | significantly inhibited
